Test results: patent US12686657B2, “Anti-inflammatory carboxamide derivatives” (BIOMEDCODE HELLAS SA, priority 2021, dated 2026)
Where two headings read alike, the source gives them in different places.

Experiments:
Assay type in all cases: cell-based, mice
hTNFtg SFs [1] = test: CCL5 and CCL20 ELISA on hTNFtg synovial fibroblasts; settings: Mus musculus, Fibroblast; for activity at 10 µM: compound 10 μM; for activity at 10 µM / activity at 50 µM / activity at 25 µM: 48 h; for activity at 50 µM: compound 50 μM; for activity at 25 µM: compound 25 μM
Protocol: Primary SFs were derived from a) human TNF transgenic (hTNFTg) mice (Keffer et al., 1991) as well as from b) CBA/C57BL6 wild type mice.
hTNFtg mice overexpress human TNF, resulting in the spontaneous development of arthritis.
(§1) SFs were isolated as previously described by Armaka et al., 2009, from the ankle joints of hTNFtg or CBA/C57BL6 wild type (wt) littermates. Briefly, ankle joints were digested with Collagenase IV (Sigma Aldrich, C5138) for 45 minutes at a 37° C. shaking waterbath and after 5 days in culture at 37° C. and 5% CO2, a depletion of CD45+ lineage cells was performed using a Biotin anti-mouse CD45 Antibody (Biolegend, 103104) and Dynabeads™ Biotin Binder (ThermoFisher 11047), according to the manufacturer's protocol. After 10 days in culture, SFs were seeded overnight (O/N) at a concentration of 2×10^4 cells/well in a 96 well plate in 1×DMEM, supplemented with 100 U/ml Penicillin Streptomycin (P/S) and 10% Fetal Bovine Serum (FBS). The next day the cells were synchronized by starvation that included their O/N plating in low serum medium (0.5% FBS). Following the O/N starvation, the hTNFg and the WT SFs were treated with different concentrations of the experimental compounds. The SFs were at the same time activated with 10 ng/ml hTNF (Peprotech, 300-01A). 48 h following the treatment the cell culture supernatants were collected and analyzed by ELISA (R&S Systems, Duoset, DY478 and DY760) according to the manufacturer's protocol, for the detection of CCL5/Rantes and CCL20/Mip3, two known inflammatory chemokines. The IC50 values were determined as the concentration of the compounds required to reduce the levels of secreted CCL5 and CCL20 by 50%.
Table 7 summarizes the reduction of CCL5 and CCL20 levels achieved with the test compounds of the invention. Data are presented as percentages of the chemokine levels detected in treated cells compared to 100% levels of the chemokines detected in the untreated cells.
Table 8 summarizes the values of IC50 and toxicity for the test compounds of the invention. Dose response curves regarding the WT SFs were produced with 10 ng/ml hTNF stimulation for all compounds, with the exception of the compounds E and F, where WT cells were induced using hTNF at 1 ng/ml: […]

SFs and PMCs = test: Compound cytotoxicity, Crystal Violet assay
Protocol: The toxicity of the test compounds was assessed at several concentrations using the Crystal Violet assay on both SFs and PMCs. Adherent viable cells were Methanol fixed and stained with Crystal Violet. Optical density was quantified at […], as described in Feoktistova et al., 2016.

hTNFtg SFs [2] = test: Legendplex pro-inflammatory chemokine panel on hTNFTg synovial fibroblasts
Protocol: as §1
The supernatants of the SFs were also analyzed using the Mouse pro-inflammatory chemokine panel from Legendplex™ (Biolegend, 740007), according to manufacturer's instructions, for the simultaneous detection of 13 Mouse chemokines.
The anti-inflammatory potential of the test compounds 51, 52, 53, E and F on SFs was also assessed using the Mouse pro-inflammatory chemokine panel from Legendplex that allows the simultaneous detection of 13 Mouse chemokines. The effect of compound 51 on SFs was assessed at a dose of 25 μM, while the effect of the test compounds 52, 53, E and F was assessed at a dose of 10 μM. Numbers represent percentages of the chemokine levels secreted from the treated SFs compared to 100% levels of the chemokines detected in the untreated cells (i.e. either hTNFTg SFs or hTNF-activated wt SFs).
Table 9 summarizes the effect of the test compounds 51, 52 and 53, E and F on the inflammatory chemokines secreted from activated SFs. WT SFs were stimulated with 10 ng/ml hTNF.

[3] = read-out: CCL5 hTNFtg, percentage of level in untreated cells
[4] = read-out: CCL20 hTNFtg, percentage of level in untreated cells
[5] = read-out: IC50 (μM) CCL5 hTNFtg
[6] = read-out: IC50 (μM) CCL20 hTNFtg

Compound	activity at 10 µM (hTNFtg SFs [1]; [3]) [%]	activity at 10 µM (hTNFtg SFs [1]; [4]) [%]	activity at 50 µM (hTNFtg SFs [1]; [3]) [%]	activity at 50 µM (hTNFtg SFs [1]; [4]) [%]	IC50 (hTNFtg SFs [1]; [5]) [µM]	IC50 (hTNFtg SFs [1]; [6]) [µM]	Cell Toxicity (SFs and PMCs) [µM]	EOTAXIN hTNFTg, percentage of level in untreated cells (hTNFtg SFs [2]; compound 25 μM) [%]	KC hTNFTg, percentage of level in untreated cells (hTNFtg SFs [2]; compound 25 μM) [%]	LIX hTNFTg, percentage of level in untreated cells (hTNFtg SFs [2]; compound 25 μM) [%]	MCP1 hTNFTg, percentage of level in untreated cells (hTNFtg SFs [2]; compound 25 μM) [%]	EOTAXIN hTNFTg, percentage of level in untreated cells (hTNFtg SFs [2]; compound 10 μM) [%]	KC hTNFTg, percentage of level in untreated cells (hTNFtg SFs [2]; compound 10 μM) [%]	LIX hTNFTg, percentage of level in untreated cells (hTNFtg SFs [2]; compound 10 μM) [%]	MCP1 hTNFTg, percentage of level in untreated cells (hTNFtg SFs [2]; compound 10 μM) [%]	MIP1β hTNFTg, percentage of level in untreated cells (hTNFtg SFs [2]; compound 10 μM) [%]	activity at 25 µM (hTNFtg SFs [1]; [3]) [%]	activity at 25 µM (hTNFtg SFs [1]; [4]) [%]
COc1cc(N)c(Cl)cc1C(=O)NCC1(c2ccc(Cl)cc2)CCCCC1 [Compound 51, 4-amino-5-chloro-N-((1-(4-chlorophenyl)cyclohexyl)methyl)-2-methoxybenzamide]	46	16	47	13	2.6	1	>100	24	80	22	89							
COc1cc(N)c(Cl)cc1C(=O)NCC1(c2ccc(Cl)cc2)CCCCCC1 [Compound 52, 4-amino-5-chloro-N-((1-(4-chlorophenyl)cycloheptyl)methyl)-2-methoxybenzamide]	50	67	29	48	4.2	15	>200					6	49	48	55			
COc1cc(N)c(Cl)cc1C(=O)NCC1(Nc2ccc(Cl)cc2)CCCCCC1 [Compound 53, 4-amino-5-chloro-N-((1-((4-chlorophenyl)amino)cycloheptyl)methyl)-2-methoxybenzamide]	40	22	34	22	2.3	3.2	>100					9	49	40	49.5	33		
COc1cc(N)c(Cl)cc1C(=O)NCC1(Nc2ccc(F)cc2Cl)CCCCCC1 [E, 4-amino-5-chloro-N-((1-((2-chloro-4-fluorophenyl)amino)cycloheptyl)methyl)-2-methoxybenzamide]	8.2	14			1.69	4.07	>150					2.5	32	19.5	25.5	24	5	20
COc1cc(N)c(Cl)cc1C(=O)NCC1(Nc2cccc(OC(F)(F)F)c2)CCCCCC1 [F, 4-amino-5-chloro-2-methoxy-N-((1-((3-(trifluoromethoxy)phenyl)amino)cycloheptyl)methyl)benzamide]	0	24			< 0.01	< 0.01	>25					0	35	1	13.5	12.5	0	29
